Data published in PubChem BioAssay (NCI).
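At the GI50, growth is halved. Definition used: TGI = concentration required for complete inhibition of growth.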

Experiments:
Assay in all cases: NCI tumour cell line growth inhibition, 384-well format
SR leukemia = system: SR leukemia
UO-31 renal = system: UO-31 renal
NCI-H322M lung = system: NCI-H322M lung
M14 melanoma = system: M14 melanoma
SN12C renal = system: SN12C renal
MDA-MB-468 breast = system: MDA-MB-468 breast
MDA-MB-435 melanoma = system: MDA-MB-435 melanoma
UACC-62 melanoma = system: UACC-62 melanoma
T-47D breast = system: T-47D breast
RPMI-8226 leukemia = system: RPMI-8226 leukemia
RXF 393 renal = system: RXF 393 renal
OVCAR-3 ovarian = system: OVCAR-3 ovarian
HL-60(TB) leukemia = system: HL-60(TB) leukemia

SMILES: O=C(Nc1cccc(NS(=O)(=O)c2ccc(F)cc2)c1)c1ccc(-c2ccccc2)cc1
- GI50 (SR leukemia): 1.76 µM
- TGI (SR leukemia): 3.31 µM
- GI50 (UO-31 renal): 3.59 µM
- TGI (UO-31 renal): 13.5 µM
- GI50 (NCI-H322M lung): 3.9 µM
- TGI (NCI-H322M lung): 19.7 µM
- GI50 (M14 melanoma): 6.38 µM
- TGI (M14 melanoma): 19.5 µM
- GI50 (SN12C renal): 3.45 µM
- TGI (SN12C renal): 11.8 µM
- GI50 (MDA-MB-468 breast): 3.1 µM
- TGI (MDA-MB-468 breast): 8.43 µM
- GI50 (MDA-MB-435 melanoma): 4.59 µM
- TGI (MDA-MB-435 melanoma): 17.1 µM
- GI50 (UACC-62 melanoma): 3.38 µM
- TGI (UACC-62 melanoma): 15 µM
- GI50 (T-47D breast): 2.03 µM
- TGI (T-47D breast): 9.91 µM
- GI50 (RPMI-8226 leukemia): 1.47 µM
- TGI (RPMI-8226 leukemia): 3.75 µM
- GI50 (RXF 393 renal): 2.02 µM
- TGI (RXF 393 renal): 4.91 µM
- GI50 (OVCAR-3 ovarian): 7.05 µM
- TGI (OVCAR-3 ovarian): 20 µM
- GI50 (HL-60(TB) leukemia): 1.73 µM
- TGI (HL-60(TB) leukemia): 3.46 µM
